Assay results taken from patent publication US20060100431A1, “Biologically active compounds” (Amura Therapeutics Limited, priority 2002, published 2006).
Like-named read-outs stand apart in the source and are kept apart here.

What was measured:
Type in all cases: biochemical
Wild-type cruzipain = Wild-type cruzipain (Trypanosoma cruzi, UniProt P25779); test: Trypanosoma cruzi cruzipain peptidase activity assay (Ki)
In short: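 Native cruzipain from T. cruzi Dm28 epimastigotes, 2.5 nM, in 100 mM sodium phosphate pH 6.75 with 1 mM EDTA and 10 mM L-cysteine, 25 °C, DMSO <1%. Rates taken from continuous fluorogenic substrate read; Ki by regression assuming reversible pure-competitive inhibition.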

human cathepsin L = target: T1, human cathepsin L (Homo sapiens, UniProt P07711); test: Cathepsin L peptidase activity assay (Ki)
T1 construct: purchased CN Biosciences
T1 sequence (P07711 114-333): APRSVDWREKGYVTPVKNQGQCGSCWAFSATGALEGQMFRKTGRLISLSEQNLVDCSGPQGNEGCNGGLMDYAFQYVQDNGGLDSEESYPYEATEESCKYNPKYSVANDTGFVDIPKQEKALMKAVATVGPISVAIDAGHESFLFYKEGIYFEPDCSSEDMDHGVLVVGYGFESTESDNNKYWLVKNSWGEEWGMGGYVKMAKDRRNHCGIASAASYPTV
In short: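 Run at 25±1° C with DMSO under 1%: buffer was 10 mM BTP pH 6.5 containing 1 mM EDTA, 1 mM CaCl2 and 5 mM 2-mercaptoethanol. Enzyme (1 nM cathepsin L) was added last to start hydrolysis of Ac-Phe-Arg-AMC held at KM^app (~20 μM), followed kinetically by fluorescence at 365/450 nm.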

CPB2.8ΔCTE = target: T2, CPB2.8ΔCTE (Leishmania mexicana, UniProt P36400); test: Leishmania mexicana cysteine protease B (CPB) peptidase activity assay (Ki)
T2 construct: Wild-type recombinant CPB without the C-terminal extention (i.e. CPB2.8ΔCTE); Dr. Jeremy Mottram (Wellcome Centre for Molecular Parasitology, University of Glasgow)
T2 sequence (P36400 126-343, stated change not applied): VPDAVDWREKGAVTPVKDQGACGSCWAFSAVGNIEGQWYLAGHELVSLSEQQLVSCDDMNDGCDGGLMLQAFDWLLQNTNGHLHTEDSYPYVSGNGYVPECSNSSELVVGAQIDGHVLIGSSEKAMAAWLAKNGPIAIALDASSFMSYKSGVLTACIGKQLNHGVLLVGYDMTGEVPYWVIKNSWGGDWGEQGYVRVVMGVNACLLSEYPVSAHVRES
In short: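 Apparent Ki was derived by regression of activity against inhibitor concentration, assuming pure-competitive reversible binding. Reaction: 0.25 nM CPB lacking the C-terminal extension, pH 5.5 acetate buffer (1 mM EDTA, 200 mM NaCl, 10 mM DTT), 25 °C, followed by continuous substrate fluorescence.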

[1] = Table 5, read-out: Ki Cruzipain
[2] = read-out: Ki, inhibitors of cruzain and cruzipains
[3] = Table 5, read-out: Ki Human Cathepsin L
[4] = Ki, inhibitors of Leismania mexicana CPB protease
[5] = read-out: Ki, inhibitors of cathepsin L

Wild-type cruzipain, sequence (P25779 whole entry): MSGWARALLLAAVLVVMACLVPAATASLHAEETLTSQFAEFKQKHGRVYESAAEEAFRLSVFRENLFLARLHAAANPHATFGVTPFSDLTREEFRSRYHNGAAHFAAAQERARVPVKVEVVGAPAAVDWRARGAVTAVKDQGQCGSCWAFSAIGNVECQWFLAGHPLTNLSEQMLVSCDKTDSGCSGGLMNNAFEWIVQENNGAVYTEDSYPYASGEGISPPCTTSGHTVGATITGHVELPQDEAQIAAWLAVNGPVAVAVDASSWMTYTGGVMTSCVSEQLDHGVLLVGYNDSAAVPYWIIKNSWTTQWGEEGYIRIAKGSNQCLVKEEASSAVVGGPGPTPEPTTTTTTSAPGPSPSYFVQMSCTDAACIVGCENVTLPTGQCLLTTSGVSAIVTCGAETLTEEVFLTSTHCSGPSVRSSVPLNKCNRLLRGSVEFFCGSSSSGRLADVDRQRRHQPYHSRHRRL

Row | SMILES | Ki (Wild-type cruzipain; [1]) [µM] | Ki (Wild-type cruzipain; [2]) [µM] | Ki (human cathepsin L; [3]) [µM] | Ki (CPB2.8ΔCTE; Ki CPB, Table 5) [µM] | Ki (CPB2.8ΔCTE; [4]) [µM] | Ki (human cathepsin L; [5]) [µM]
1 | CC(C)C[C@H](NC(=O)c1ccc(-c2cccs2)cc1)C(=O)N1CC[C@@H]2[C@H]1C(=O)CN2C(=O)c1ccccc1 [Example 2, (3aR,6aS)-N-[(1S)-1-(4-Benzoyl-6-oxo-hexahydro-pyrrolo[3,2-b]pyrrole-1-carbonyl)-3-methyl-butyl]-4-thiophen-2-yl-benzamide] | > 0.3 | < 5 | > 3 | > 0.2 | < 5 | 
2 | CC(C)C[C@H](NC(=O)c1cc2ccccc2s1)C(=O)N1CC[C@@H]2[C@H]1C(=O)CN2C(=O)c1ccccc1 [Example 7, (3aR,6aS)-Benzo[b]thiophene-2-carboxylic acid [(1S)-1-(4-benzoyl-6-oxo-hexahydro-pyrrolo[3,2-b]pyrrole-1-carbonyl)-3-methyl-butyl]-amide] |  | < 5 |  |  |  | < 5
3 | CC(C)C[C@H](NC(=O)c1ccc(N(C)C)cc1)C(=O)N1CC[C@@H]2[C@H]1C(=O)CN2C(=O)c1ccccc1 [Example 14, (3aR,6aS)-N-[(1S)-1-(4-Benzoyl-6-oxo-hexahydro-pyrrolo[3,2-b]pyrrole-1-carbonyl)-3-methyl-butyl]-4-dimethylamino-benzamide] |  | < 5 |  |  | < 5 | < 5
4 | CC(C)C[C@H](NC(=O)c1cccc(N(C)C)c1)C(=O)N1CC[C@@H]2[C@H]1C(=O)CN2C(=O)c1cccc(S(C)(=O)=O)c1 [Example 59, (3aR,6aS)-3-Dimethylamino-N-{(1S)-1-[4-(3-methanesulfonyl-benzoyl)-6-oxo-hexahydro-pyrrolo[3,2-b]pyrrole-1-carbonyl]-3-methyl-butyl}-benzamide] |  | < 5 |  |  | < 5 | < 5
5 | CC(C)C[C@H](NC(=O)c1ccc2c(c1)CCCN2)C(=O)N1CC[C@@H]2[C@H]1C(=O)CN2C(=O)c1ccccc1 [Example 87, (3aR,6aS)-1,2,3,4-Tetrahydro-quinoline-6-carboxylic acid [(1S)-1-(4-benzoyl-6-oxo-hexahydro-pyrrolo[3,2-b]pyrrole-1-carbonyl)-3-methyl-butyl]-amide] |  | < 5 |  |  | < 5 | < 5
6 | CC(C)C[C@H](NC(=O)c1ccc2ncsc2c1)C(=O)N1CC[C@@H]2[C@H]1C(=O)CN2C(=O)c1ccccc1 [Example 90, (3aR,6aS)-Benzothiazole-6-carboxylic acid [(1S)-1-(4-benzoyl-6-oxo-hexahydro-pyrrolo[3,2-b]pyrrole-1-carbonyl)-3-methyl-butyl]-amide] |  | < 5 |  |  | < 5 | < 5
7 | CC(C)C[C@H](NC(=O)c1ccc(-n2cccn2)cc1)C(=O)N1CC[C@@H]2[C@H]1C(=O)CN2C(=O)c1ccccc1 [Example 91, (3aR,6aS)-N-[(1S)-1-(4-Benzoyl-6-oxo-hexahydro-pyrrolo[3,2-b]pyrrole-1-carbonyl)-3-methyl-butyl]-4-pyrazol-1-yl-benzamide] |  | < 5 |  |  | < 5 | < 5
8 | CC(C)C[C@H](NC(=O)c1ccc(N(C)C)cc1)C(=O)N1CC[C@@H]2[C@H]1C(=O)CN2C(=O)c1csc2ccccc12 [Example 103, (3aR,6aS)-N-{(1S)-1-[4-(Benzo[b]thiophene-3-carbonyl)-6-oxo-hexahydro-pyrrolo[3,2-b]pyrrole-1-carbonyl]-3-methyl-butyl}-4-dimethylamino-benzamide] |  | < 5 |  |  | < 5 | < 5
9 | CC(=O)N[C@@H](CC(C)C)C(=O)N1CC(=O)[C@@H]2[C@H]1CCN2C(=O)[C@H](CC(C)C)NC(=O)c1ccc(N(C)C)cc1 [Example 151, (3aR,6aS)-N-{(1S)-1-[4-((2S)-2-Acetylamino-4-methyl-pentanoyl)-6-oxo-hexahydro-pyrrolo[3,2-b]pyrrole-1-carbonyl]-3-methyl-butyl}-4-dimethylamino-benzamide] |  | < 5 |  |  | < 5 | < 5
10 | CC(C)C[C@H](NC(=O)c1ccc(N(C)C)cc1)C(=O)N1CC[C@@H]2[C@H]1C(=O)CN2C(=O)[C@@H](NC(=O)OCc1ccccc1)C(C)C [Example 158, (3aS,6aR)-((S)-1-{4-[(2S)-2-(4-Dimethylamino-benzoylamino)-4-methyl-pentanoyl]-3-oxo-hexahydro-pyrrolo[3,2-b]pyrrole-1-carbonyl}-2-methyl-propyl)-carbamic acid benzyl ester] |  | < 5 |  |  | < 5 | < 5
11 | CC(C)C[C@H](NC(=O)c1ccc(OC(F)(F)F)cc1)C(=O)N1CC[C@@H]2[C@H]1C(=O)CN2C(=O)c1ccccc1 [Example 173, (3aR,6aS)-N-[(1S)-1-(4-Benzoyl-6-oxo-hexahydro-pyrrolo[3,2-b]pyrrole-1-carbonyl)-3-methyl-butyl]-4-trifluoromethoxy-benzamide] |  | < 5 |  |  | < 5 | < 5
12 | CC(C)C[C@H](NC(=O)c1ccc(N2CCNCC2)cc1)C(=O)N1CC[C@@H]2[C@H]1C(=O)CN2C(=O)c1ccccc1 [Example 194, (3aR,6aS)-N-[(1S)-1-(4-Benzoyl-6-oxo-hexahydro-pyrrolo[3,2-b]pyrrole-1-carbonyl)-3-methyl-butyl]-4-piperazin-1-yl-benzamide] |  | < 5 |  |  | < 5 | < 5
13 | CC(C)C[C@H](NC(=O)c1cccc(N2CCNCC2)c1)C(=O)N1CC[C@@H]2[C@H]1C(=O)CN2C(=O)c1ccccc1 [Example 247, (3aR,6aS)-N-[(1S)-1-(4-Benzoyl-6-oxo-hexahydro-pyrrolo[3,2-b]pyrrole-1-carbonyl)-3-methyl-butyl]-3-piperazin-1-yl-benzamide] |  | < 5 |  |  | < 5 | < 5
14 | CC(C)C[C@H](NC(=O)c1ccc(C(C)(C)C)cc1)C(=O)N1NC[C@@H]2[C@H]1C(=O)CN2C(=O)c1ccccc1 [Example 249a, (3aR,6aS)-N-[(1S)-1-(4-benzoyl-6-oxo-hexahydropyrrolo[3,2-c]pyrazole-1-carbonyl)-3-methylbutyl]-4-tert-butylbenzamide] |  | < 5 |  |  | < 5 | < 5
15 | CC(C)CC(NC(=O)c1ccc(N)cc1)C(=O)N1NC[C@@H]2[C@H]1C(=O)CN2C(=O)c1ccccc1 (stereo partly drawn) [Example 249b, (3aR,6aS)-4-amino-N-[1-(4-benzoyl-6-oxo-hexahydropyrrolo[3,2-c]pyrazole-1-carbonyl)-3-methylbutyl)benzamide] |  | < 5 |  |  | < 5 | < 5
16 | CC(C)C[C@H](NC(=O)c1ccc(N)cc1)C(=O)N1NC[C@@H]2[C@H]1C(=O)CN2C(=O)c1cccc(S(C)(=O)=O)c1 [Example 249c, (3aR,6aS)-4-amino-N-{(1S)-1-[4-(3-methanesulfonylbenzoyl)-6-oxo-hexahydropyrrolo [3,2-c]pyrazole-1-carbonyl]-3-methylbutyl}benzamide] |  | < 5 |  |  | < 5 | < 5
17 | O=C(N[C@@H](CC1CCCCC1)C(=O)N1CC[C@@H]2[C@H]1C(=O)CN2C(=O)c1ccccc1)c1ccsc1 [Example 250, (3aR,6aS)-Thiophene-3-carboxylic acid [(1S)-2-(4-benzoyl-6-oxo-hexahydro-pyrrolo[3,2-b]pyrrole-1-yl)-1-cyclohexylmethyl-2-oxo-ethyl]-amide] | > 5 |  | > 1 | > 5 |  | < 5
18 | O=C(N[C@@H](Cc1ccc(O)cc1)C(=O)N1CC[C@@H]2[C@H]1C(=O)CN2C(=O)c1ccccc1)c1cccc2ccccc12 [Example 296, (3aR,6aS)-Naphthalene-1-carboxylic acid [(1S)-2-(4-benzoyl-6-oxo-hexahydro-pyrrolo[3,2-b]pyrrole-1-yl)-1-(4-hydroxybenzyl)-2-oxo-ethyl]-amide] | > 1 | < 5 | < 0.2 | > 5 |  | 
19 | CC(C)(C)c1ccc(C(=O)N[C@@H](Cc2ccc(O)cc2)C(=O)N2CC[C@@H]3[C@H]2C(=O)CN3C(=O)c2ccccc2)cc1 [Example 346, (3aR,6aS)-N-[(1S)-2-(4-Benzoyl-6-oxo-hexahydro-pyrrolo[3,2-b]pyrrol-1-yl)-1-(4-hydroxybenzyl)-2-oxo-ethyl]-4-tert-butyl-benzamide] | < 0.2 |  | > 3 | > 5 |  | < 5
